The numbers were not newly measured in patent publication US8865899B2 (AstraZeneca AB, priority 2006, dated 2014), which cites them from elsewhere.

The subject of data set [1] is VEGF RTK. The following applies: statement in words, background.
For data set [2], the system named is tumour models. The following applies: once-daily oral administration; Wedge et al, Proc. Am. Assoc. Canc. Res. 2001; 42: abstract 3126.

Take `COc1cc2c(Nc3ccc(Br)cc3F)ncnc2cc1OCC1CCN(C)CC1` [ZD6474, 4-(4-bromo-2-fluoroanilino)-6-methoxy-7-(1-methylpiperidin-4-ylmethoxy)quinazoline]: the “inhibition of VEGF RTK” value in data set [1] was “potent inhibitor”. The anti-tumour activity entry in data set [2] is listed as “broad-spectrum anti-tumour activity”.
